Laboratory results from US20230365628A1, “MACROCYCLIC IMMUNOMODULATORS” (Bristol-Myers Squibb Company, priority 2020, published 2023).
*1 amine or outer side, *2 acyl side, *3 side chain or, on linkers, in order; H or OH if unused. Where a SMILES comes first, the peptide text is derived from it. Bridges are numbered along the chain shown (N, C = ends). [ ]: non-standard residue; d: D form. The star is where a group is joined. Trp(1-CH2CO) = O=C([C@H](Cc1cn(CC(=O)[*:3])c2ccccc12)N[*:1])[*:2]; Dodecyloxycarbonyl = CCCCCCCCCCCCOC(=O)*; X4 = CCc1cccc(CC)c1-c1nc(*)c2ccccc2n1; Fmoc = O=C(OCC1c2ccccc2-c2ccccc21)*; Oleoyl = CCCCCCCC/C=C\CCCCCCCC(=O)*; X2 = COc1ccc2nc(-c3ccccc3)nc(*)c2c1; Hyp = O=C(O)[C@@H]1C[C@@H](O)CN1; X1 = COC(=O)c1ccc2cnc(*)nc2c1; NMeNle = CCCC[C@H](NC)C(=O)O; X6 = CCCCCCCCCCCCCCCCOC(=O)*; NMeA = CN[C@@H](C)C(=O)O; X3 = Brc1ccc2ncnc(*)c2c1; Dab = NCC[C@H](N)C(=O)O; Dap = NC[C@H](N)C(=O)O; X5 = CC(C)(C)SC(=O)*

biological target: T1, PD-1/PD-L1 (Homo sapiens, UniProt Q9NZQ7); experiment: PD-1/PD-L1 Homogenous Time-Resolved Fluorescence (HTRF) binding assay; settings: PD-L1-His 10 nM, PD-1-Ig 20 nM; soluble extracellular domains
T1 construct: TVMV protease site linker (C); made in house; host or cells: HEK293T cells
T1 sequence (Q9NZQ7 18-239): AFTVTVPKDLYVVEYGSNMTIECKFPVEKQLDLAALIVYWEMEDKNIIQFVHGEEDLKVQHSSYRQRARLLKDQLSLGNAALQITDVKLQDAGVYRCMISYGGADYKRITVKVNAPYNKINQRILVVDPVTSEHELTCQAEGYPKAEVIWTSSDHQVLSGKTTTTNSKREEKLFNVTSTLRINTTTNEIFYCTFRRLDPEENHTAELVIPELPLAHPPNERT
From the text: Methods for Testing the Ability of Macrocyclic Peptides to Compete for the Binding of Pd-1 to Pd-L1 Using Homogenous Time-Resolved Fluorescence (Htrf) Binding Assays
The ability of the compounds of formula (I) to bind to PD-L1 was investigated using a PD-1/PD-L1 Homogenous Time-Resolved Fluorescence (HTRF) binding assay.
The interaction of PD-1 and PD-L1 can be assessed using soluble, purified preparations of the extracellular domains of the two proteins. The PD-1 and PD-L1 protein extracellular domains were expressed as fusion proteins with detection tags, for PD-1, the tag was the Fc portion of Immunoglobulin (PD-1-Ig) and for PD-L1 it was the 6 histidine motif (PD-L1-His). All binding studies were performed in an HTRF assay buffer consisting of dPBS supplemented with 0.1% […] bovine serum albumin and 0.05% (v/v) Tween-20. For the h/PD-L1-His binding assay, inhibitors were pre-incubated with PD-L1-His (10 nM final) for 15 m in 4 μl of assay buffer, followed by addition of PD-1-Ig (20 nM final) in 1 μl of assay buffer and further incubation for 15 m. HTRF detection was achieved using europium crypate-labeled anti-Ig (1 nM final) and allophycocyanin (APC) labeled anti-His (20 nM final). Antibodies were diluted in HTRF detection buffer and 5 μl was dispensed on top of the binding reaction. The reaction mixture was allowed to equilibrate for 30 minutes and the resulting signal (665 nm/620 nm ratio) was obtained using an EnVision fluorometer. Additional binding assays were established between the human proteins PD-1-Ig/PD-L2-His (20 & 5 nM, respectively) and CD80-His/PD-L1-Ig (100 & 10 nM, respectively).
Recombinant Proteins: Human PD-1 (25-167) with a C-terminal human Fc domain of immunoglobulin G (Ig) epitope tag [hPD-1(25-167)-3S-IG] and human PD-L1 (18-239) with a C-terminal His epitope tag [hPD-L1(18-239)-TVMV-His] were expressed in HEK293T cells and purified sequentially by Protein A affinity chromatography and size exclusion chromatography. Human PD-L2-His and CD80-His was obtained through commercial sources.
Table 1 lists the IC50 values for representative examples of this disclosure measured in the PD-1/PD-L1 Homogenous Time-Resolved Fluorescence (HTRF) binding assay.

| Compound | IC50 [nM] |
| --- | --- |
| CCCCCCCCCCCCOC(=O)NC[C@@H]1NC(=O)[C@@H]2CCCN2C(=O)[C@H](CC(N)=O)NC(=O)[C@H](C)N(C)C(=O)[C@H](Cc2ccc(O)cc2)NC(=O)CSC[C@@H](C(=O)NCC(N)=O)NC(=O)[C@H](CC(C)C)NC(=O)[C@H](CCCC)N(C)C(=O)[C@H](CCCC)N(C)C(=O)[C@@H]2Cc3cn(c4ccccc34)CC(=O)NCC[C@H](NC(=O)[C@H](Cc3c[nH]c4ccccc34)NC(=O)[C@@H]3C[C@@H](O)CN3C(=O)[C@H](CC(C)C)NC1=O)C(=O)N2 [Example 1001] ({CH2CO}-Y[NMeA]NP[Dap](Dodecyloxycarbonyl)L[Hyp]W[Dab][Trp(1-CH2CO)][NMeNle][NMeNle]LCG-NH2; lactam 9-10; thioether N-14) | 280 |
| CCCC[C@H]1C(=O)N(C)[C@@H](CCCC)C(=O)N[C@@H](CC(C)C)C(=O)N[C@H](C(=O)NCC(N)=O)CSCC(=O)N[C@@H](Cc2ccc(O)cc2)C(=O)N(C)[C@@H](C)C(=O)N[C@@H](CC(N)=O)C(=O)N2CCC[C@H]2C(=O)N[C@@H](CNc2nc(Cl)nc3ccc(-c4ccccc4C)cc23)C(=O)N[C@@H](CC(C)C)C(=O)N2C[C@H](O)C[C@H]2C(=O)N[C@@H](Cc2c[nH]c3ccccc23)C(=O)N[C@H]2CCCC(=O)Cn3cc(c4ccccc43)C[C@H](NC2=O)C(=O)N1C [Example 1007] | 1200 |
| CCCC[C@H]1C(=O)N(C)[C@@H](CCCC)C(=O)N[C@@H](CC(C)C)C(=O)N[C@H](C(=O)NCC(N)=O)CSCC(=O)N[C@@H](Cc2ccc(O)cc2)C(=O)N(C)[C@@H](C)C(=O)N[C@@H](CC(N)=O)C(=O)N2CCC[C@H]2C(=O)N[C@@H](CNC(=O)OCC2c3ccccc3-c3ccccc32)C(=O)N[C@@H](CC(C)C)C(=O)N2C[C@H](O)C[C@H]2C(=O)N[C@@H](Cc2c[nH]c3ccccc23)C(=O)N[C@H]2CCNC(=O)Cn3cc(c4ccccc43)C[C@H](NC2=O)C(=O)N1C [Example 1004] ({CH2CO}-Y[NMeA]NP[Dap](Fmoc)L[Hyp]W[Dab][Trp(1-CH2CO)][NMeNle][NMeNle]LCG-NH2; lactam 9-10; thioether N-14) | 16 |
| CCCCCCCC/C=C\CCCCCCCC(=O)NC[C@@H]1NC(=O)[C@@H]2CCCN2C(=O)[C@H](CC(N)=O)NC(=O)[C@H](C)N(C)C(=O)[C@H](Cc2ccc(O)cc2)NC(=O)CSC[C@@H](C(=O)NCC(N)=O)NC(=O)[C@H](CC(C)C)NC(=O)[C@H](CCCC)N(C)C(=O)[C@H](CCCC)N(C)C(=O)[C@@H]2Cc3cn(c4ccccc34)CC(=O)NCC[C@H](NC(=O)[C@H](Cc3c[nH]c4ccccc34)NC(=O)[C@@H]3C[C@@H](O)CN3C(=O)[C@H](CC(C)C)NC1=O)C(=O)N2 [Example 1003] ({CH2CO}-Y[NMeA]NP[Dap](Oleoyl)L[Hyp]W[Dab][Trp(1-CH2CO)][NMeNle][NMeNle]LCG-NH2; lactam 9-10; thioether N-14) | > 10000 |
| CCCCCCCCCCCCCCCCOC(=O)NC[C@@H]1NC(=O)[C@@H]2CCCN2C(=O)[C@H](CC(N)=O)NC(=O)[C@H](C)N(C)C(=O)[C@H](Cc2ccc(O)cc2)NC(=O)CSC[C@@H](C(=O)NCC(N)=O)NC(=O)[C@H](CC(C)C)NC(=O)[C@H](CCCC)N(C)C(=O)[C@H](CCCC)N(C)C(=O)[C@@H]2Cc3cn(c4ccccc34)CC(=O)NCC[C@H](NC(=O)[C@H](Cc3c[nH]c4ccccc34)NC(=O)[C@@H]3C[C@@H](O)CN3C(=O)[C@H](CC(C)C)NC1=O)C(=O)N2 [Example 1002] ({CH2CO}-Y[NMeA]NP[Dap](X6)L[Hyp]W[Dab][Trp(1-CH2CO)][NMeNle][NMeNle]LCG-NH2; lactam 9-10; thioether N-14) | 2200 |

The remaining lines, values ahead:

| IC50 [nM] | Compound |
| --- | --- |
| 49 | CCCC[C@H]1C(=O)N(C)[C@@H](CCCC)C(=O)N[C@@H](CC(C)C)C(=O)N[C@H](C(=O)NCC(N)=O)CSCC(=O)N[C@@H](Cc2ccc(O)cc2)C(=O)N(C)[C@@H](C)C(=O)N[C@@H](CC(N)=O)C(=O)N2CCC[C@H]2C(=O)N[C@@H](CNc2nc(-c3ccccc3)nc3ccc(OC)cc23)C(=O)N[C@@H](CC(C)C)C(=O)N2C[C@H](O)C[C@H]2C(=O)N[C@@H](Cc2c[nH]c3ccccc23)C(=O)N[C@H]2CCNC(=O)Cn3cc(c4ccccc43)C[C@H](NC2=O)C(=O)N1C [Example 1014] ({CH2CO}-Y[NMeA]NP[Dap](X2)L[Hyp]W[Dab][Trp(1-CH2CO)][NMeNle][NMeNle]LCG-NH2; lactam 9-10; thioether N-14) |
| 97 | CCCC[C@H]1C(=O)N(C)[C@@H](CCCC)C(=O)N[C@@H](CC(C)C)C(=O)N[C@H](C(=O)NCC(N)=O)CSCC(=O)N[C@@H](Cc2ccc(O)cc2)C(=O)N(C)[C@@H](C)C(=O)N[C@@H](CC(N)=O)C(=O)N2CCC[C@H]2C(=O)N[C@@H](CNc2ncnc3ccc(Br)cc23)C(=O)N[C@@H](CC(C)C)C(=O)N2C[C@H](O)C[C@H]2C(=O)N[C@@H](Cc2c[nH]c3ccccc23)C(=O)N[C@H]2CCNC(=O)Cn3cc(c4ccccc43)C[C@H](NC2=O)C(=O)N1C [Example 1015] ({CH2CO}-Y[NMeA]NP[Dap](X3)L[Hyp]W[Dab][Trp(1-CH2CO)][NMeNle][NMeNle]LCG-NH2; lactam 9-10; thioether N-14) |
| 120 | CCCC[C@H]1C(=O)N(C)[C@@H](CCCC)C(=O)N[C@@H](CC(C)C)C(=O)N[C@H](C(=O)NCC(N)=O)CSCC(=O)N[C@@H](Cc2ccc(O)cc2)C(=O)N(C)[C@@H](C)C(=O)N[C@@H](CC(N)=O)C(=O)N2CCC[C@H]2C(=O)N[C@@H](CNc2ncc3ccc(C(=O)OC)cc3n2)C(=O)N[C@@H](CC(C)C)C(=O)N2C[C@H](O)C[C@H]2C(=O)N[C@@H](Cc2c[nH]c3ccccc23)C(=O)N[C@H]2CCNC(=O)Cn3cc(c4ccccc43)C[C@H](NC2=O)C(=O)N1C [Example 1016] ({CH2CO}-Y[NMeA]NP[Dap](X1)L[Hyp]W[Dab][Trp(1-CH2CO)][NMeNle][NMeNle]LCG-NH2; lactam 9-10; thioether N-14) |
| 0.58 | CCCC[C@H]1C(=O)N(C)[C@@H](CCCC)C(=O)N[C@@H](CC(C)C)C(=O)N[C@H](C(=O)NCC(N)=O)CSCC(=O)N[C@@H](Cc2ccc(O)cc2)C(=O)N(C)[C@@H](C)C(=O)N[C@@H](CC(N)=O)C(=O)N2CCC[C@H]2C(=O)N[C@@H](CNC(=O)SC(C)(C)C)C(=O)N[C@@H](CC(C)C)C(=O)N2C[C@H](O)C[C@H]2C(=O)N[C@@H](Cc2c[nH]c3ccccc23)C(=O)N[C@H]2CCNC(=O)Cn3cc(c4ccccc43)C[C@H](NC2=O)C(=O)N1C [Example 1005] ({CH2CO}-Y[NMeA]NP[Dap](X5)L[Hyp]W[Dab][Trp(1-CH2CO)][NMeNle][NMeNle]LCG-NH2; lactam 9-10; thioether N-14) |
| 41 | CCCC[C@H]1C(=O)N(C)[C@@H](CCCC)C(=O)N[C@@H](CC(C)C)C(=O)N[C@H](C(=O)NCC(N)=O)CSCC(=O)N[C@@H](Cc2ccc(O)cc2)C(=O)N(C)[C@@H](C)C(=O)N[C@@H](CC(N)=O)C(=O)N2CCC[C@H]2C(=O)N[C@@H](CNc2nc(-c3c(CC)cccc3CC)nc3ccccc23)C(=O)N[C@@H](CC(C)C)C(=O)N2C[C@H](O)C[C@H]2C(=O)N[C@@H](Cc2c[nH]c3ccccc23)C(=O)N[C@H]2CCNC(=O)Cn3cc(c4ccccc43)C[C@H](NC2=O)C(=O)N1C [Example 1013] ({CH2CO}-Y[NMeA]NP[Dap](X4)L[Hyp]W[Dab][Trp(1-CH2CO)][NMeNle][NMeNle]LCG-NH2; lactam 9-10; thioether N-14) |
